The results in this text go back to US10065941B2, “Aminotriazine derivative and pharmaceutical composition comprising the same” (Shionogi & Co., Ltd., priority 2013, dated 2018).

In the test the target is human P2X3 receptor (Homo sapiens (Human), UniProt P56373). Nature of the test: Evaluation of human P2X3 receptor inhibitory activity (Test Example 1). Format: cell-based. The note with it: C6BU-1 cell transfected with human P2X3 receptor gene, FLIPR 384. The procedure: Stably expressing cell line (C6BU-1 cell transfected with human P2X3 receptor gene (GenBank accession number Y07683) was used. The cells were seeded in a 384-well PDL-coated microtiter plate at a concentration of 3000 cells/well and cultured in the medium (8.3% fetal bovine serum, 8.3% horse serum, and 1% antibiotic and antifungal in DMEM) for one day at 37° C. under 5% carbon dioxide atmosphere. The medium was replaced with 4 μM Fluo-3-AM solution (20 mM HEPES, 137 mM NaCl, 2.7 mM KCl, 0.9 mM MgCl2, 5.0 mM CaCl2, 5.6 mM D-glucose, 2.5 mM probenecid, 0.5% BSA, and 0.04% Pluronic F-127, pH 7.5) and incubated at 37° C. under 5% dioxide carbon atmosphere for one hour. The plate was washed with washing buffer (20 mM HEPES, 137 mM NaCl, 2.7 mM KCl, 0.9 mM MgCl2, 5.0 mM CaCl2, 5.6 mM D-glucose, 2.5 mM probenecid, pH7.5), and each well was added with 20 μL of the washing buffer. The plate was placed in High-Throughput Screening System FLIPR 384 (Molecular Device Co.). Measurement of fluorescence intensity by FLIPR 384 was started, and 20 μL of DMSO solutions containing different concentrations of the test compound as prepared by dilution with dilution buffer (20 mM HEPES, 137 mM NaCl, 2.7 mM KCl, 0.9 mM MgCl2, 5.0 mM CaCl2, 5.6 mM D-glucose, 2.5 mM probenecid, 0.1% Pluronic F-127, pH7.5) were dispensed to each well through the built-in automatic dispenser. Five minutes after, 150 nM ATP solution (25 μL) prepared by dilution with the dilution buffer was dispensed through the built-in automatic dispenser, and the measurement of fluorescence intensity was continued for 4 min. For each well, the specific maximum fluorescence intensity was calculated as the ratio of the maximum fluorescence intensity after addition of the ATP solution to the fluorescence intensity at the starting of the measurement. […] The specific maximum fluorescence intensity and IC50 were calculated using Spotfire (Science & Technology Systems, Inc.)
Sequence of human P2X3 receptor (P56373 whole entry): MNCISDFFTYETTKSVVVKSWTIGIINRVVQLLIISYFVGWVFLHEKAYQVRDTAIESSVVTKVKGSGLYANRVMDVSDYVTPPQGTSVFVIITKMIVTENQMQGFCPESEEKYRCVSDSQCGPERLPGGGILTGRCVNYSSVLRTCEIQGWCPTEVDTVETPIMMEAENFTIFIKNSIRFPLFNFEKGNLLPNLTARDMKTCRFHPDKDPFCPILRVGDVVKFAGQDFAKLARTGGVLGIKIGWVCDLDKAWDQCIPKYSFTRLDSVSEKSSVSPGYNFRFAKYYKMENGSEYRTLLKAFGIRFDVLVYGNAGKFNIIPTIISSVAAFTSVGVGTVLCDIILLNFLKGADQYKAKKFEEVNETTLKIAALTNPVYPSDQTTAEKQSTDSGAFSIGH
For the molecule `COC(=O)[C@H](C)[C@H](C)n1c(=O)[nH]/c(=N\c2ccc(Oc3ccc(F)cn3)c(F)c2)n(Cc2ccc(Cl)cc2)c1=O` [Compound I-001], the IC50 (usually the concentration that gives 50% inhibition) came out at 44 nM.

The molecule `COC(=O)C(C)(C)Cn1c(=O)[nH]/c(=N\c2ccc(Oc3ccc(F)cn3)cc2)n(Cc2ccc(Cl)cc2)c1=O` [Compound I-003] yielded an IC50 of 7 nM.

`COC(=O)C(C)(C)Cn1c(=O)[nH]/c(=N\c2ccc(Oc3ccc(Cl)cn3)cc2)n(Cc2ccc(Cl)cc2)c1=O` [Compound I-004] gave an IC50 of 14 nM.

Regarding `CC(C)(Cn1c(=O)[nH]/c(=N\c2ccc(Oc3ccc(F)cn3)cc2)n(Cc2ccc(Cl)cc2)c1=O)C(=O)O` [Compound I-005], it took 8 nM to reach half-maximal inhibition (IC50).

Molecule `COC(=O)C(C)(C)Cn1c(=O)[nH]/c(=N\c2ccc(Oc3ncccc3F)cc2)n(Cc2ccc(Cl)cc2)c1=O` [Compound I-007] registered an IC50 of 9 nM.

Take `COC(=O)C(C)(C)Cn1c(=O)[nH]/c(=N\c2ccc(Oc3cccc(F)n3)cc2)n(Cc2ccc(Cl)cc2)c1=O` [Compound I-008]: the IC50 stood at 7 nM.

`CC(C)(Cn1c(=O)[nH]/c(=N\c2ccc(Oc3ncccc3F)cc2)n(Cc2ccc(Cl)cc2)c1=O)C(=O)O` [Compound I-009]: the IC50 turned out to be 7 nM.

`CC(C)(Cn1c(=O)[nH]/c(=N\c2ccc(Oc3cccc(F)n3)cc2)n(Cc2ccc(Cl)cc2)c1=O)C(=O)O` [Compound I-010] returned an IC50 of 5 nM.

Molecule `COC(=O)[C@@H](C)Cn1c(=O)[nH]/c(=N\c2ccc(Oc3cccc(Cl)n3)cc2)n(Cc2ccc(Cl)cc2)c1=O` [Compound I-011] returned an IC50 of 18 nM.

With `COC(=O)C(C)(C)Cn1c(=O)[nH]/c(=N\c2ccc(Oc3cccc(Cl)n3)cc2)n(Cc2ccc(Cl)cc2)c1=O` [Compound I-012], the IC50 is 25 nM.

With `COC(=O)[C@H](C)[C@H](C)n1c(=O)[nH]/c(=N\c2ccc(Oc3cccc(Cl)n3)cc2)n(Cc2ccc(Cl)cc2)c1=O` [Compound I-013], the IC50 is 58 nM.

As to `CC(C)(Cn1c(=O)[nH]/c(=N\c2ccc(Oc3cccc(Cl)n3)cc2)n(Cc2ccc(Cl)cc2)c1=O)C(=O)O` [Compound I-015], it took 9 nM to reach half-maximal inhibition (IC50).

`C[C@@H](C(=O)O)[C@H](C)n1c(=O)[nH]/c(=N\c2ccc(Oc3cccc(Cl)n3)cc2)n(Cc2ccc(Cl)cc2)c1=O` [Compound I-016] returned a concentration for half-maximal inhibition (IC50) of 8 nM.

`O=C(O)C1(Cn2c(=O)[nH]/c(=N\c3ccc(Oc4ccc(F)cn4)cc3)n(Cc3ccc(Cl)cc3)c2=O)CC1` [Compound I-018]: the IC50 amounted to 12 nM.

`O=c1[nH]/c(=N\c2ccc(Oc3ccc(F)cn3)cc2)n(Cc2ccc(Cl)cc2)c(=O)n1[C@H]1C[C@@H](C(=O)O)C1` [Compound I-020]: the IC50 was 9 nM.

In turn, `COC(=O)C(C)(C)Cn1c(=O)[nH]/c(=N\c2ccc(Oc3ccc(OC(F)F)cn3)cc2)n(Cc2ccc(Cl)cc2)c1=O` [Compound I-021] returned an IC50 of 25 nM.

`C[C@@H](Cn1c(=O)[nH]/c(=N\c2ccc(Oc3ccc(OC(F)F)cn3)cc2)n(Cc2ccc(Cl)cc2)c1=O)C(=O)O` [Compound I-022] showed an IC50 of 4 nM.

Take `CC(C)(Cn1c(=O)[nH]/c(=N\c2ccc(Oc3ccc(OC(F)F)cn3)cc2)n(Cc2ccc(Cl)cc2)c1=O)C(=O)O` [Compound I-023]: the IC50 came out at 7 nM.

With `COC(=O)[C@@H](C)Cn1c(=O)[nH]/c(=N\c2ccc(Oc3ncccc3F)cc2)n(Cc2ccc(F)cc2F)c1=O` [Compound I-024], the IC50 stood at 34 nM.

Take `COC(=O)[C@@H](C)Cn1c(=O)[nH]/c(=N\c2ccc(Oc3cccc(F)n3)cc2)n(Cc2ccc(F)cc2F)c1=O` [Compound I-026]: the IC50 amounted to 17 nM.

On to `C[C@@H](Cn1c(=O)[nH]/c(=N\c2ccc(Oc3ncccc3F)cc2)n(Cc2ccc(F)cc2F)c1=O)C(=O)O` [Compound I-027], for which it took 39 nM to reach half-maximal inhibition (IC50).

In turn, `C[C@@H](Cn1c(=O)[nH]/c(=N\c2ccc(Oc3ccc(F)cn3)cc2)n(Cc2ccc(F)cc2F)c1=O)C(=O)O` [Compound I-028] gave an IC50 of 20 nM.

Molecule `COC(=O)[C@@H](C)Cn1c(=O)[nH]/c(=N\c2ccc(Oc3ncccc3C(F)(F)F)cc2)n(Cc2ccc(Cl)cc2)c1=O` [Compound I-030] gave an IC50 of 176 nM.

For `COC(=O)C(C)(C)Cn1c(=O)[nH]/c(=N\c2ccc(Oc3ncccc3C(F)(F)F)cc2)n(Cc2ccc(Cl)cc2)c1=O` [Compound I-031], the IC50 came to 199 nM.

On to `C[C@@H](Cn1c(=O)[nH]/c(=N\c2ccc(Oc3ncccc3C(F)(F)F)cc2)n(Cc2ccc(Cl)cc2)c1=O)C(=O)O` [Compound I-032], for which half-maximal inhibition (IC50) required 11 nM.

Regarding `CC(C)(Cn1c(=O)[nH]/c(=N\c2ccc(Oc3ncccc3C(F)(F)F)cc2)n(Cc2ccc(Cl)cc2)c1=O)C(=O)O` [Compound I-033], the IC50 is 23 nM.

In the case of `COC(=O)[C@@H](C)Cn1c(=O)[nH]/c(=N\c2ccc(Oc3ccc(C(F)(F)F)cn3)cc2)n(Cc2ccc(C)cc2)c1=O` [Compound I-034], the IC50 came to 9 nM.

The molecule `COC(=O)[C@@H](C)Cn1c(=O)[nH]/c(=N\c2ccc(Oc3cccc(C(F)(F)F)n3)cc2)n(Cc2ccc(C)cc2)c1=O` [Compound I-035] showed an IC50 of 12 nM.

Consider `COC(=O)C(C)(C)Cn1c(=O)[nH]/c(=N\c2ccc(Oc3ccc(F)cn3)cc2)n(Cc2ccc(C)cc2)c1=O` [Compound I-037], for which the IC50 stood at 6 nM.

`Cc1ccc(Cn2c(=O)n(C[C@H](C)C(=O)O)c(=O)[nH]/c2=N\c2ccc(Oc3ccc(C(F)(F)F)cn3)cc2)cc1` [Compound I-038] displayed a 50% inhibitory concentration (IC50) of 5 nM.

`Cc1ccc(Cn2c(=O)n(C[C@H](C)C(=O)O)c(=O)[nH]/c2=N\c2ccc(Oc3cccc(C(F)(F)F)n3)cc2)cc1` [Compound I-039] displayed an IC50 of 8 nM.

Take `Cc1ccc(Cn2c(=O)n(CC(C)(C)C(=O)O)c(=O)[nH]/c2=N\c2ccc(Oc3ccc(F)cn3)cc2)cc1` [Compound I-041]: the concentration for half-maximal inhibition (IC50) was 9 nM.

In turn, `O=c1[nH]/c(=N\c2ccc(Oc3cccc(F)n3)cc2)n(Cc2ccc(Cl)cc2)c(=O)n1CC1(CO)COC1` [Compound I-042] returned an IC50 of 4 nM.

On to `COC(=O)[C@@H](C)Cn1c(=O)[nH]/c(=N\c2ccc(Oc3ncccc3OC(F)F)cc2)n(Cc2ccc(Cl)cc2)c1=O` [Compound I-043], for which it took 117 nM to reach half-maximal inhibition (IC50).

As for `C[C@@H](Cn1c(=O)[nH]/c(=N\c2ccc(Oc3ncccc3OC(F)F)cc2)n(Cc2ccc(Cl)cc2)c1=O)C(=O)O` [Compound I-044], the IC50 was found to be 26 nM.

The molecule `COC(=O)[C@@H](C)Cn1c(=O)[nH]/c(=N\c2ccc(Oc3ncccc3C#N)cc2)n(Cc2ccc(Cl)cc2)c1=O` [Compound I-045] returned an IC50 of 19 nM.

In the case of `COC(=O)C(C)(C)Cn1c(=O)[nH]/c(=N\c2ccc(Oc3ncccc3C#N)cc2)n(Cc2ccc(Cl)cc2)c1=O` [Compound I-046], inhibition was half-maximal at 19 nM (IC50).

`C[C@@H](Cn1c(=O)[nH]/c(=N\c2ccc(Oc3ncccc3C#N)cc2)n(Cc2ccc(Cl)cc2)c1=O)C(=O)O` [Compound I-047] registered an IC50 of 22 nM.

`CC(C)(Cn1c(=O)[nH]/c(=N\c2ccc(Oc3ncccc3C#N)cc2)n(Cc2ccc(Cl)cc2)c1=O)C(=O)O` [Compound I-048] had an IC50 of 30 nM.

For `O=C(O)C1(Cn2c(=O)[nH]/c(=N\c3ccc(Oc4cccc(F)n4)cc3)n(Cc3ccc(Cl)cc3)c2=O)COC1` [Compound I-049], the IC50 amounted to 15 nM.

As to `O=C(O)C1(Cn2c(=O)[nH]/c(=N\c3ccc(Oc4ncccc4F)cc3)n(Cc3ccc(Cl)cc3)c2=O)COC1` [Compound I-050], half-maximal inhibition (IC50) was put at 28 nM.

`COC(=O)[C@@H](C)Cn1c(=O)[nH]/c(=N\c2ccc(Oc3ccc(C)cn3)cc2)n(Cc2ccc(Cl)cc2)c1=O` [Compound I-051]: the IC50 is 6 nM.

The molecule `COC(=O)[C@@H](C)Cn1c(=O)[nH]/c(=N\c2ccc(Oc3ncccc3F)cc2)n(Cc2ccc(C)cc2)c1=O` [Compound I-052] had an IC50 of 6 nM.

For the molecule `COC(=O)[C@@H](C)Cn1c(=O)[nH]/c(=N\c2ccc(Oc3cccc(F)n3)cc2)n(Cc2ccc(C)cc2)c1=O` [Compound I-053], the IC50 was determined as 6 nM.

For `Cc1ccc(Oc2ccc(/N=c3\[nH]c(=O)n(C[C@H](C)C(=O)O)c(=O)n3Cc3ccc(Cl)cc3)cc2)nc1` [Compound I-054], the midpoint of inhibition, the IC50, lay at 5 nM.

As for `COC(=O)C(C)(C)Cn1c(=O)[nH]/c(=N\c2ccc(Oc3ccc(C)cn3)cc2)n(Cc2ccc(Cl)cc2)c1=O` [Compound I-055], half-maximal inhibition (IC50) was put at 9 nM.

Regarding `Cc1ccc(Cn2c(=O)n(C[C@H](C)C(=O)O)c(=O)[nH]/c2=N\c2ccc(Oc3ncccc3F)cc2)cc1` [Compound I-056], the IC50 turned out to be 7 nM.

Turning to `O=C(O)C1(Cn2c(=O)[nH]/c(=N\c3ccc(Oc4ccc(F)cn4)cc3)n(Cc3ccc(Cl)cc3)c2=O)COC1` [Compound I-059], the half-inhibitory concentration (IC50) stood at 16 nM.

Take `COC(=O)[C@@H](C)Cn1c(=O)[nH]/c(=N\c2ccc(Oc3cc(Cl)ccn3)cc2)n(Cc2ccc(Cl)cc2)c1=O` [Compound I-060]: the IC50 amounted to 24 nM.
